Tests used:
rice = test: Test B flood test rice; type: in vivo, Oryza sativa
Outline: (§1)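 Flood test on plants grown to the 2-leaf stage; treated plants kept in greenhouse twelve to sixteen days, then visually rated against controls on a 0 (no effect) to 10 (complete control) scale.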

wild oat = test: Test B pre/postemergence wild oat; type: in vivo, Avena fatua
Outline: (§2)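 Test chemicals in a non-phytotoxic solvent mixture with surfactant were sprayed preemergence onto planted seeds and postemergence onto plants 2 to 18 cm tall (1- to 4-leaf stage). After twelve to sixteen days in a greenhouse, injury was visually rated against untreated controls from 0 (no effect) to 10 (complete control).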

purple nutsedge = test: Test B pre/postemergence purple nutsedge; type: in vivo, Cyperus rotundus
Outline: as §2

smallflower flatsedge = test: Test B flood test smallflower flatsedge; type: in vivo, Cyperus difformis
Outline: as §1

giant foxtail = test: Test B pre/postemergence giant foxtail; type: in vivo, Setaria faberii
Outline: as §2

morningglory = test: Test B pre/postemergence morningglory; type: in vivo, Ipomoea hederacea
Outline: as §2

crabgrass = test: Test B pre/postemergence crabgrass; type: in vivo, Digitaria sanguinalis
Outline: as §2

corn = test: Test B pre/postemergence corn; type: in vivo, Zea mays
Outline: as §2

soybean = test: Test B pre/postemergence soybean; type: in vivo, Glycine max
Outline: as §2

cocklebur = test: Test B pre/postemergence cocklebur; type: in vivo, Xanthium strumarium
Outline: as §2

rape = test: Test B pre/postemergence rape; type: in vivo, Brassica napus
Outline: as §2

bedstraw = test: Test B pre/postemergence bedstraw; type: in vivo, Galium aparine
Outline: as §2

pigweed = test: Test B pre/postemergence pigweed; type: in vivo, Amaranthus retroflexus
Outline: as §2

velvetleaf = test: Test B pre/postemergence velvetleaf; type: in vivo, Abutilon theophrasti
Outline: as §2

wheat = test: Test B pre/postemergence wheat; type: in vivo, Triticum aestivum
Outline: as §2

duck salad = test: Test B flood test duck salad; type: in vivo, Heteranthera limosa
Outline: as §1

[1] = Rate 62 g/ha, headed Pre-emergence (flood test species), scale 0 to 10 (0 no effect, 10 complete control)
[2] = Rate 125 g/ha, Pre-emergence, flood test species, scale 0 to 10 where 0 is no effect and 10 is complete control
[3] = Rate 250 g/ha, Pre-emergence, flood-test species, scale 0 to 10, 0 is no effect, 10 is complete control
[4] = Rate 500 g/ha, Pre-emergence, flood test species, scale 0 to 10 (0 no effect, 10 complete control)
[5] = Preemergence, Rate 62 g/ha, scale of 0 to 10 where 0 is no effect and 10 is complete control
[6] = Preemergence, Rate 250 g/ha, scale of 0 to 10 where 0 is no effect and 10 is complete control
[7] = Preemergence, Rate 500 g/ha, scale of 0 to 10 where 0 is no effect and 10 is complete control
[8] = Rate 62 g/ha, Postemergence, scale of 0 to 10 where 0 is no effect and 10 is complete control
[9] = Rate 125 g/ha, Postemergence, scale 0 to 10
[10] = Rate 125 g/ha, Preemergence, scale of 0 to 10 where 0 is no effect and 10 is complete control
[11] = Rate 500 g/ha, Postemergence, scale 0 to 10, 0 no effect, 10 complete control

COc1cc(C)cc(C)c1-n1c(=O)on(C(=O)N(c2ccc(F)cc2)C(C)C)c1=O [Compound 222]
Rice plant response rating (rice; [1]): 0
Rice plant response rating (rice; [2]): 0
Rice plant response rating (rice; [3]): 0
Rice plant response rating (rice; [4]): 0
Wild oats plant response rating (wild oat; [5]): 0
Wild oats plant response rating (wild oat; [6]): 0
Plant response rating, Wild oats (wild oat; [7]): 1
Wild oats plant response rating (wild oat; [8]): 0
Wild oats plant response rating (wild oat; [9]): 0
Wild oats plant response rating (wild oat; [10]): 0
Plant response rating (0 to 10; 0 is no effect, 10 is complete control), Wild oats (wild oat; Rate 250 g/ha, Postemergence): 0
Wild oats plant response rating (wild oat; [11]): 0
Nutsedge plant response rating (purple nutsedge; [6]): 0
Nutsedge plant response rating (purple nutsedge; [8]): 0
Nutsedge plant response rating (purple nutsedge; [9]): 0
Nutsedge plant response rating (purple nutsedge; [10]): 0
Plant response rating (0 to 10; 0 is no effect, 10 is complete control), Nutsedge (purple nutsedge; Rate 250 g/ha, Postemergence): 0
S. Flatsedge plant response rating (smallflower flatsedge; [1]): 0
S. Flatsedge plant response rating (smallflower flatsedge; [2]): 0
S. Flatsedge plant response rating (smallflower flatsedge; [3]): 0
S. Flatsedge plant response rating (smallflower flatsedge; [4]): 0
Giant foxtail plant response rating (giant foxtail; [5]): 0
Giant foxtail plant response rating (giant foxtail; [6]): 7
Plant response rating, Giant foxtail (giant foxtail; [7]): 9
Giant foxtail plant response rating (giant foxtail; [8]): 0
Giant foxtail plant response rating (giant foxtail; [9]): 0
Giant foxtail plant response rating (giant foxtail; [10]): 5
Plant response rating (0 to 10; 0 is no effect, 10 is complete control), Giant foxtail (giant foxtail; Rate 250 g/ha, Postemergence): 0
Giant foxtail plant response rating (giant foxtail; [11]): 1
Morningglory plant response rating (morningglory; [5]): 0
Morningglory plant response rating (morningglory; [6]): 0
Plant response rating, Morningglory (morningglory; [7]): 0
Morningglory plant response rating (morningglory; [8]): 1
Morningglory plant response rating (morningglory; [9]): 1
Morningglory plant response rating (morningglory; [10]): 0
Plant response rating (0 to 10; 0 is no effect, 10 is complete control), Morningglory (morningglory; Rate 250 g/ha, Postemergence): 3
Morningglory plant response rating (morningglory; [11]): 3
Crabgrass plant response rating (crabgrass; [5]): 0
Crabgrass plant response rating (crabgrass; [6]): 8
Plant response rating, Crabgrass (crabgrass; [7]): 9
Crabgrass plant response rating (crabgrass; [8]): 0
Crabgrass plant response rating (crabgrass; [9]): 0
Crabgrass plant response rating (crabgrass; [10]): 6
Plant response rating (0 to 10; 0 is no effect, 10 is complete control), Crabgrass (crabgrass; Rate 250 g/ha, Postemergence): 0
Crabgrass plant response rating (crabgrass; [11]): 2
Corn plant response rating (corn; [5]): 0
Corn plant response rating (corn; [6]): 0
Plant response rating, Corn (corn; [7]): 0
Corn plant response rating (corn; [8]): 0
Corn plant response rating (corn; [9]): 0
Corn plant response rating (corn; [10]): 0
Plant response rating (0 to 10; 0 is no effect, 10 is complete control), Corn (corn; Rate 250 g/ha, Postemergence): 0
Corn plant response rating (corn; [11]): 0
Soybean plant response rating (soybean; [5]): 0
Soybean plant response rating (soybean; [6]): 0
Plant response rating, Soybean (soybean; [7]): 0
Soybean plant response rating (soybean; [8]): 2
Soybean plant response rating (soybean; [9]): 3
Soybean plant response rating (soybean; [10]): 0
Plant response rating (0 to 10; 0 is no effect, 10 is complete control), Soybean (soybean; Rate 250 g/ha, Postemergence): 3
Soybean plant response rating (soybean; [11]): 2
Cocklebur plant response rating (cocklebur; [5]): 0
Cocklebur plant response rating (cocklebur; [6]): 0
Cocklebur plant response rating (cocklebur; [8]): 0
Cocklebur plant response rating (cocklebur; [9]): 0
Cocklebur plant response rating (cocklebur; [10]): 0
Plant response rating (0 to 10; 0 is no effect, 10 is complete control), Cocklebur (cocklebur; Rate 250 g/ha, Postemergence): 0
Cocklebur plant response rating (cocklebur; [11]): 0
Rape plant response rating (rape; [5]): 0
Rape plant response rating (rape; [6]): 0
Plant response rating, Rape (rape; [7]): 0
Rape plant response rating (rape; [8]): 0
Rape plant response rating (rape; [9]): 0
Rape plant response rating (rape; [10]): 0
Plant response rating (0 to 10; 0 is no effect, 10 is complete control), Rape (rape; Rate 250 g/ha, Postemergence): 0
Rape plant response rating (rape; [11]): 0
Bedstraw plant response rating (bedstraw; [5]): 0
Bedstraw plant response rating (bedstraw; [6]): 0
Plant response rating, Bedstraw (bedstraw; [7]): 0
Bedstraw plant response rating (bedstraw; [8]): 3
Bedstraw plant response rating (bedstraw; [9]): 3
Bedstraw plant response rating (bedstraw; [10]): 0
Plant response rating (0 to 10; 0 is no effect, 10 is complete control), Bedstraw (bedstraw; Rate 250 g/ha, Postemergence): 4
Bedstraw plant response rating (bedstraw; [11]): 5
Redroot pigweed plant response rating (pigweed; [5]): 0
Redroot pigweed plant response rating (pigweed; [6]): 0
Plant response rating, Redroot pigweed (pigweed; [7]): 4
Redroot pigweed plant response rating (pigweed; [8]): 0
Redroot pigweed plant response rating (pigweed; [9]): 0
Redroot pigweed plant response rating (pigweed; [10]): 0
Plant response rating (0 to 10; 0 is no effect, 10 is complete control), Redroot pigweed (pigweed; Rate 250 g/ha, Postemergence): 0
Redroot pigweed plant response rating (pigweed; [11]): 0
Velvetleaf plant response rating (velvetleaf; [5]): 0
Velvetleaf plant response rating (velvetleaf; [6]): 0
Plant response rating, Velvetleaf (velvetleaf; [7]): 3
Velvetleaf plant response rating (velvetleaf; [8]): 0
Velvetleaf plant response rating (velvetleaf; [9]): 0
Velvetleaf plant response rating (velvetleaf; [10]): 0
Plant response rating (0 to 10; 0 is no effect, 10 is complete control), Velvetleaf (velvetleaf; Rate 250 g/ha, Postemergence): 2
Velvetleaf plant response rating (velvetleaf; [11]): 3
Wheat plant response rating (wheat; [5]): 0
Wheat plant response rating (wheat; [6]): 0
Plant response rating, Wheat (wheat; [7]): 0
Wheat plant response rating (wheat; [8]): 0
Wheat plant response rating (wheat; [9]): 0
Wheat plant response rating (wheat; [10]): 0
Plant response rating (0 to 10; 0 is no effect, 10 is complete control), Wheat (wheat; Rate 250 g/ha, Postemergence): 0
Wheat plant response rating (wheat; [11]): 0
Ducksalad plant response rating (duck salad; [1]): 0
Ducksalad plant response rating (duck salad; [2]): 0
Ducksalad plant response rating (duck salad; [3]): 0
Ducksalad plant response rating (duck salad; [4]): 0

Reference: patent US6737383B1, “Herbicidal oxadiazolidines” (priority 1999, dated 2004)
